Tested on: HUVEC
Assay: Inhibition of VEGF-induced HUVEC proliferation treated 1 hr before VEGF challenge measured 3 days by WST-8 assay
Format: functional, cell-based
Conditions: Homo sapiens

**Q.** How did the IC50 turn out when `Clc1ccc(Nc2nnc(Cc3ccncc3)c3ccccc23)cc1` [VATALANIB] was run?
**A.** 33 nM
